pIC50: −log10 of the molar value.

Sequence of Full length KDM2B (Q8NHM5 whole entry): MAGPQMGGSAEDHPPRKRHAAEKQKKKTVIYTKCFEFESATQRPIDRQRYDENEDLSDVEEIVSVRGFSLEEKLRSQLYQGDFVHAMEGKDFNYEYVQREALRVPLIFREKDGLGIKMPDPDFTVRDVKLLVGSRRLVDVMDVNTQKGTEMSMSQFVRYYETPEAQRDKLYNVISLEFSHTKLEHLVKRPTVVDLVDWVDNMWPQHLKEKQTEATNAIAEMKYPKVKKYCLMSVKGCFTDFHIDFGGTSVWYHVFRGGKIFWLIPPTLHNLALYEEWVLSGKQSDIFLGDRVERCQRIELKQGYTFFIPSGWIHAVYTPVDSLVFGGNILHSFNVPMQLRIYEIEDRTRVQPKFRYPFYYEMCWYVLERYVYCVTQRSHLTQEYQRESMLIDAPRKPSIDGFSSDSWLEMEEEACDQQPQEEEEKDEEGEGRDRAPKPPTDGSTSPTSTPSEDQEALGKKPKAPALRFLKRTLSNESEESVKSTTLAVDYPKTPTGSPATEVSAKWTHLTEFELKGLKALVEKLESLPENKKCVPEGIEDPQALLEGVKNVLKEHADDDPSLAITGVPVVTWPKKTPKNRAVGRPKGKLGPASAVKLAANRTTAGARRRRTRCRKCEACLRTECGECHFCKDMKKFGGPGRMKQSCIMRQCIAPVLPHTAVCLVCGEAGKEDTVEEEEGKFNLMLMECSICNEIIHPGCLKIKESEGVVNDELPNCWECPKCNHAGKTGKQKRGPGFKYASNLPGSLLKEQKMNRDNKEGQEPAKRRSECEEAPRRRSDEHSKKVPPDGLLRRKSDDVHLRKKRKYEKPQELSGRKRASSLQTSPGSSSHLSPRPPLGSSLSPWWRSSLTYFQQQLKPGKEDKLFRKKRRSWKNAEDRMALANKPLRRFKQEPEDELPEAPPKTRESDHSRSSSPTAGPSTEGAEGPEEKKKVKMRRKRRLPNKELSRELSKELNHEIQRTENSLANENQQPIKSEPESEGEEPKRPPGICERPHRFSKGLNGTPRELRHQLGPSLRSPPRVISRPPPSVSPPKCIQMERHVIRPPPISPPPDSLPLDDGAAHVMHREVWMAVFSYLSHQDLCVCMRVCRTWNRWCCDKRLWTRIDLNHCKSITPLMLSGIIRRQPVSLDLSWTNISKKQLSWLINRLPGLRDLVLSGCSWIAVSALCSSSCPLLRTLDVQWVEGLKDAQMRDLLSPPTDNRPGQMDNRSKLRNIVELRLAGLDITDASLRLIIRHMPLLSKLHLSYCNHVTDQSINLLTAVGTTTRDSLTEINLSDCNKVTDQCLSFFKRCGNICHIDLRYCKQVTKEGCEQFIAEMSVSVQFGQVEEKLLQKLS

This test concerns the target Full length KDM2B (Homo sapiens (Human), UniProt Q8NHM5). As to the kind of experiment: KDM2B TR-FRET assay for determining inhibitor IC50. Type of test: biochemical. As to conditions: TR-FRET (HTRF), biotin-H3K36me2 peptide substrate, 2-OG 0.3 μM or 6 μM. An excerpt: KDM2B TR-FRET Assay for Determining Inhibitor IC50
The KDM2B TR-FRET Assay described above represents an additional embodiment of the invention.
In the case of `O=C(c1cc(CO)c2ccccc2c1)C1CCCN(CC2CC2)C1` (centres unmarked) [Example 35, [1-(cyclopropylmethyl)-3-piperidyl]-[4-(hydroxymethyl)-2-naphthyl]methanone], the pIC50 (usually the IC50 on a negative log10 scale, so that one unit is a factor of ten) was 6.77. For the molecule `COc1ccc2cc(C(=O)C3CN(CC4CC4)CCC3OC)ccc2c1` (single isomer, unassigned) [Example 146b, (1-(cyclopropylmethyl)-4-methoxypiperidin-3-yl)(6-methoxynaphthalen-2-yl)methanone], the pIC50 was 6.89. `CC(O)c1cc(C(=O)C2CCCN(C3CCCC3)C2)cc2ccccc12` (centres unmarked) [Example 63, (1-cyclopentyl-3-piperidyl)-[4-(1-hydroxyethyl)-2-naphthyl]methanone] showed a negative logarithm of the IC50 (pIC50) of 6.82. With `CC[C@@H]1CCN(C2CCC2)C[C@H]1C(=O)c1ccc2cc(OC)ccc2c1` (single isomer, unassigned) [Example 142a, (1-cyclobutyl-4-ethylpiperidin-3-yl)(6-methoxynaphthalen-2-yl)methanone] the figure was 7.94; with `CS(=O)(=O)N1CCc2cc(C(=O)C3CCCN(C4CCC4)C3)ccc2C1` (centres unmarked) [Example 149, (1-cyclobutylpiperidin-3-yl)(2-(methylsulfonyl)-1,2,3,4-tetrahydroisoquinolin-6-yl)methanone], 6.79; with `COc1ccc2cc(C(=O)[C@@H]3CN(C4CCC4)CC[C@@H]3C(C)C)ccc2c1` (single isomer, unassigned) [Example 143a, (1-cyclobutyl-4-isopropylpiperidin-3-yl)(6-methoxynaphthalen-2-yl)methanone], 6.20. `CCCN1CCCC(C(=O)c2ccc3c(c2)OCCO3)C1` (centres unmarked) [Example 108, 2,3-dihydro-1,4-benzodioxin-6-yl-(1-propyl-3-piperidyl)methanone]: the pIC50 is 6.53.

Molecule `CCC1CCN(C2CC2)CC1C(=O)c1ccc2cc(OC)ccc2c1` (single isomer, unassigned) [Example 147a, (1-cyclopropyl-4-ethylpiperidin-3-yl)(6-methoxynaphthalen-2-yl)methanone] gave a pIC50 of 5.70.

On to `O=C(c1ccc2c(c1)CCCCC2)C1CCCN(C2CCC2)C1` (centres unmarked) [Example 132, (1-cyclobutylpiperidin-3-yl)(6,7,8,9-tetrahydro-5H-benzo[7]annulen-2-yl)methanoe], for which the pIC50 was 7.26. As for `NC(=O)c1cc(C(=O)C2CCCN(CC3CC3)C2)cc2ccccc12` (centres unmarked) [Example 48, 3-[1-(cyclopropylmethyl)piperidine-3-carbonyl]naphthalene-1-carboxamide], the pIC50 is 6.74.

In the case of `O=C(c1cccc(Oc2ccccc2)c1)[C@H]1CCCN(CC2CC2)C1` [Example 28, [(3S)-1-(cyclopropylmethyl)-3-piperidyl]-(3-phenoxyphenyl)methanone], the pIC50 is 5.77. On to `Cc1c(C#N)ccc2cc(C(=O)C3CCCN(C4CCC4)C3)ccc12` (centres unmarked) [Example 72, 6-(1-cyclobutylpiperidine-3-carbonyl)-1-methyl-2-naphthonitrile], for which the pIC50 is 7.06. To `COCCN1CCCC(C(=O)c2ccc3cc(OC)ccc3c2)C1` (centres unmarked) [Example 78, [1-(2-methoxyethyl)-3-piperidyl]-(6-methoxy-2-naphthyl)methanone] belongs 5.62; to `O=C(c1ccc(C(F)(F)F)cc1)C1CCCN(CC2CC2)C1` (centres unmarked) [Example 22, [1-(cyclopropylmethyl)-3-piperidyl]-[4-(trifluoromethyl)phenyl]methanone], 5.85. With `COc1ccc2cc(C(=O)C3CN(C4CCC4)CCN3Cc3cccc(C#N)c3)ccc2c1` (centres unmarked) [Example 193, 3-[[4-cyclobutyl-2-(6-methoxynaphthalene-2-carbonyl)piperazin-1-yl]methyl]benzonitrile] the figure was 7.65; with `CCC[C@H]1CCN(C2CCC2)C[C@H]1C(=O)c1ccc2c(CC#N)c(OC)ccc2c1` (stereo in doubt) [Example 184b, 2-(6-(1-cyclobutyl-4-propylpiperidine-3-carbonyl)-2-methoxynaphthalen-1-yl)acetonitrile], 8.85; with `COc1ccc2cc(C(=O)[C@@H]3CN(C4CCC4)CC[C@@H]3C(C)C)ccc2c1CC#N` (stereo in doubt) [Example 186a, 2-(6-(1-cyclobutyl-4-isopropylpiperidine-3-carbonyl)-2-methoxynaphthalen-1-yl)acetonitrile], 7.15. For the molecule `CCCN1CCCC(C(=O)c2cc(OC)cc(OC)c2)C1` (centres unmarked) [Example 105, (3,5-dimethoxyphenyl)-(1-propyl-3-piperidyl)methanone], the pIC50 was 6.57. Regarding `C[C@H]1CCN(C2CCC2)C[C@@H]1C(=O)c1ccc2cc(C#N)ccc2c1` (stereo in doubt) [Example 161a, 6-(1-cyclobutyl-4-methylpiperidine-3-carbonyl)-2-naphthonitrile], the pIC50 is 5.52.

Take `O=C(c1ccc(-c2ccccc2)cc1)[C@@H]1CCCN(CC2CC2)C1` [Example 32, [(3R)-1-(cyclopropylmethyl)-3-piperidyl]-(4-phenylphenyl)methanone]: the pIC50 was 5.39. Regarding `O=C(c1cc(CO)c2ccccc2c1)C1CCCN(C2CCC2)C1` (centres unmarked) [Example 58, (1-cyclobutyl-3-piperidyl)-[4-(hydroxymethyl)-2-naphthyl]methanone], the pIC50 is 7.32. With `CCCN1CCCC(C(=O)c2ccc3c(C)c(C#N)ccc3c2)C1` (centres unmarked) [Example 70, 1-methyl-6-(1-propylpiperidine-3-carbonyl)-2-naphthonitrile] the figure was 7.04; with `O=C(Nc1ccc2cc(C(=O)C3CCCN(CC4CC4)C3)ccc2c1)C1CC1` (centres unmarked) [Example 175], 6.45. To `COc1ccc(C(=O)[C@@H]2CCCN(C3CCC3)C2)c(OC)c1` [Example 12, [(3R)-1-cyclobutyl-3-piperidyl]-(2,4-dimethoxyphenyl)methanone] belongs 5.05; to `COc1ccc2cc(C(=O)[C@H]3CN(C4CCC4)CC[C@H]3C)ccc2c1CC#N` (stereo in doubt) [Example 182a, 2-(6-(1-cyclobutyl-4-methylpiperidine-3-carbonyl)-2-methoxynaphthalen-1-yl)acetonitrile], 6.54; to `O=C(c1ccc2c(O)cccc2c1)C1CCCN(CC2CC2)C1` (centres unmarked) [Example 150, (1-(cyclopropylmethyl)piperidin-3-yl)(5-hydroxynaphthalen-2-yl)methanone], 6.88. To `COc1ccc2cc(C(=O)C3CCCN(CCF)C3)ccc2c1` (centres unmarked) [Example 79, [1-(2-fluoroethyl)-3-piperidyl]-(6-methoxy-2-naphthyl)methanone] belongs 5.74; to `C[C@@H]1CCN(CC2CC2)C[C@H]1C(=O)c1ccc2cc(C#N)ccc2c1` (stereo in doubt) [Example 160b, 6-(1-(cyclopropylmethyl)-4-methylpiperidine-3-carbonyl)-2-naphthonitrile], 6.95. Molecule “(1-(cyclopropylmethyl)-4-methylpiperidin-3-yl)(6-methoxynaphthalen-2-yl)methanone [Example 137a]” showed a pIC50 of 7.15.

`O=C(c1ccc2ccccc2n1)C1CCCN(CC2CC2)C1` (single isomer, unassigned) [Example 117a, (1-(cyclopropylmethyl)piperidin-3-yl)(quinolin-2-yl)methanone] had a pIC50 of 6.45.

As to `CCCN1CCCC(C(=O)c2ccc3c(c2)CCCC3)C1` (centres unmarked) [Example 107, (1-propyl-3-piperidyl)-tetralin-6-yl-methanone], the pIC50 is 7.00. `COc1ccc2cc(C(=O)C3CCCN(C4CC(F)(F)C4)C3)ccc2c1` (centres unmarked) [Example 66, [1-(3,3-difluorocyclobutyl)-3-piperidyl]-(6-methoxy-2-naphthyl)methanone] showed a pIC50 of 7.17. Molecule `CC1CCN(CC2CC2)CC1C(=O)c1ccc2c(O)cccc2c1` (single isomer, unassigned) [Example 151b, (1-(cyclopropylmethyl)-4-methylpiperidin-3-yl)(5-hydroxynaphthalen-2-yl)methanone] gave a pIC50 of 7.40.

Consider `CCCC1CCN(C2CCC2)CC1C(=O)c1ccc2cc(OC)ccc2c1` (single isomer, unassigned) [Example 140a, (1-cyclobutyl-4-propylpiperidin-3-yl)(6-methoxynaphthalen-2-yl)methanone], for which the pIC50 was 6.51. With `Cc1ccc2cc(C(=O)C3CCCN(C4CCCC4)C3)ccc2c1` (centres unmarked) [Example 166, (1-cyclopentylpiperidin-3-yl)(6-methylnaphthalen-2-yl)methanone] the figure was 6.62; with `COc1ccc2cc(C(=O)[C@H]3CN(C4CCC4)CC[C@H]3CC(C)C)ccc2c1CC#N` (stereo in doubt) [Example 185b, 2-(6-(1-cyclobutyl-4-isobutylpiperidine-3-carbonyl)-2-methoxynaphthalen-1-yl)acetonitrile], 8.70. For `COc1ccc2cc(C(=O)[C@H]3C[C@@H](C)CN(CC4CC4)C3)ccc2c1` (single isomer, unassigned) [Example 139a, (1-(cyclopropylmethyl)-5-methylpiperidin-3-yl)(6-methoxynaphthalen-2-yl)methanone], the pIC50 was 6.48.

The molecule `O=C(c1ccc(-c2ccccc2)cc1)[C@H]1CCCN(CC2CC2)C1` [Example 33, [(3S)-1-(cyclopropylmethyl)-3-piperidyl]-(4-phenylphenyl)methanone] gave a pIC50 of 7.02. Turning to `COc1ccc2cc(C(=O)[C@@H]3CN(C4CCC4)CC[C@@H]3C)ccc2c1CC#N` (stereo in doubt) [Example 182b, 2-(6-(1-cyclobutyl-4-methylpiperidine-3-carbonyl)-2-methoxynaphthalen-1-yl)acetonitrile], the pIC50 was 8.95. On to `COc1ccc(C(=O)[C@@H]2CCCN(CC3CC3)C2)cc1` (stereo in doubt) [Example 110b, (1-(cyclopropylmethyl)piperidin-3-yl)(4-methoxyphenyl)methanone], for which the pIC50 was 5.28. Turning to `CC1CC1CN1CCCC(C(=O)c2ccc3cc(C#N)ccc3c2)C1` (centres unmarked) [Example 164, 6-(1-((2-methylcyclopropyl)methyl)piperidine-3-carbonyl)-2-naphthonitrile], the pIC50 was 6.36.

The values above are taken from patent publication US10280149B2, “Therapeutic compounds and uses thereof” (GENENTECH, INC., priority 2015, dated 2019).
